Assay results from ChEMBL document CHEMBL5257115, “Synthesis of novel ciprofloxacin-avibactam conjugates for the development of second-generation non-β-lactam-β-lactamase inhibitors” (Bioorg Med Chem Lett, 2023).
Converted amounts (≈) assume the structure as drawn. The source made the active and inactive calls. The rule behind the calls is not given here.

How the values were obtained:
Klebsiella pneumoniae [1] = test: Antibacterial activity against multidrug resistant Klebsiella pneumoniae ATCC 2782 assessed as bacterial growth inhibition; type: functional
Escherichia coli [2] = test: Antibacterial activity against multidrug resistant Escherichia coli ATCC 2774 assessed as bacterial growth inhibition; type: functional
Staphylococcus aureus [3] = test: Antibacterial activity against multidrug resistant Staphylococcus aureus ATCC 43300 assessed as bacterial growth inhibition; type: functional
Escherichia coli [4] = test: Antibacterial activity against multidrug resistant Escherichia coli ATCC 25922 assessed as bacterial growth inhibition; type: functional
Staphylococcus aureus [5] = test: Antibacterial activity against multidrug resistant Staphylococcus aureus ATCC 25923 assessed as bacterial growth inhibition; type: functional
Klebsiella pneumoniae [6] = test: Antibacterial activity against multidrug resistant Klebsiella pneumoniae ATCC 2146 assessed as bacterial growth inhibition; type: functional
Acinetobacter baumannii = test: Antibacterial activity against multidrug resistant Acinetobacter baumannii ATCC 2803 assessed as bacterial growth inhibition; type: functional
Escherichia coli [7] = test: Synergistic antibacterial activity against multidrug resistant Escherichia coli ATCC 2774 assessed as bacterial growth inhibition in presence of ceftazidime; type: functional, organism-based
Escherichia coli [8] = test: Synergistic antibacterial activity against multidrug resistant Escherichia coli ATCC 25922 assessed as bacterial growth inhibition in presence of ceftazidime; type: functional, organism-based
Klebsiella pneumoniae [9] = test: Synergistic antibacterial activity against multidrug resistant Klebsiella pneumoniae ATCC 2146 assessed as bacterial growth inhibition in presence of ceftazidime; type: functional, organism-based
Klebsiella pneumoniae [10] = test: Synergistic antibacterial activity against multidrug resistant Klebsiella pneumoniae ATCC 2782 assessed as bacterial growth inhibition in presence of ceftazidime; type: functional, organism-based
[11] = biological target: T1, Metallo-beta-lactamase type 2 (Bacillus cereus, UniProt P14488); test: Inhibition of Bacillus cereus beta-lactamase II
T1 sequence (P14488 whole entry): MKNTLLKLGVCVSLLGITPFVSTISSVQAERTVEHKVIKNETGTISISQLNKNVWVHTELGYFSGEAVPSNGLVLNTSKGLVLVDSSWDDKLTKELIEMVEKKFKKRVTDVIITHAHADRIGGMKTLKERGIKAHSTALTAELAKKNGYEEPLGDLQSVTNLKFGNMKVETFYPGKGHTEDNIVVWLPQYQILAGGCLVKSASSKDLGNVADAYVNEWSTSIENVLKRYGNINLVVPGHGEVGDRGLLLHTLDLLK

[12] = Hemolytic activity in human RBC assessed as hemolysis at 512 ug/ml; type: toxicity, cell-based, Erythrocyte; conditions: red blood cells (RBC), at 512 µg/mL, read-out: Activity

Row | SMILES | MIC (Klebsiella pneumoniae [1]) [µg/mL] | MIC (Escherichia coli [2]) [µg/mL] | MIC (Staphylococcus aureus [3]) [µg/mL] | MIC (Escherichia coli [4]) [µg/mL] | MIC (Staphylococcus aureus [5]) [µg/mL] | MIC (Klebsiella pneumoniae [6]) [µg/mL] | MIC (Acinetobacter baumannii) [µg/mL] | Activity (Escherichia coli [7]) | Activity (Escherichia coli [8]) | Activity (Klebsiella pneumoniae [9]) | Activity (Klebsiella pneumoniae [10]) | IC50 [11] [nM] | hemolysis at 512 ug/ml [12] [%]
1 | O=C(CCCCCNC(=O)[C@@H]1CC[C@@H]2CN1C(=O)N2OS(=O)(=O)O)NNC(=O)c1cn(C2CC2)c2cc(N3CCNCC3)c(F)cc2c1=O | > 32 | > 32 | > 64 | 4 (≈ 5.66 µM) | > 64 | > 64 | > 64 | – | – | – | – | – | –
2 | CC(C)[C@H](NC(=O)[C@@H]1CC[C@@H]2CN1C(=O)N2OS(=O)(=O)O)C(=O)NNC(=O)c1cn(C2CC2)c2cc(N3CCNCC3)c(F)cc2c1=O | > 128 | > 128 | > 128 | 16 (≈ 23.1 µM) | 128 (≈ 185 µM) | > 128 | > 128 | Active | Active | Active | Active | 57.4 | 5.1
3 | COc1ccc(C[C@H](NC(=O)[C@@H]2CC[C@@H]3CN2C(=O)N3OS(=O)(=O)O)C(=O)NNC(=O)c2cn(C3CC3)c3cc(N4CCNCC4)c(F)cc3c2=O)cc1OC | > 64 | > 64 | > 64 | 32 (≈ 40 µM) | > 64 | > 64 | > 64 | – | – | – | – | – | –
4 | C[C@H](NC(=O)[C@@H]1CC[C@@H]2CN1C(=O)N2OS(=O)(=O)O)C(=O)NNC(=O)c1cn(C2CC2)c2cc(N3CCNCC3)c(F)cc2c1=O | > 128 | > 128 | 32 (≈ 48.1 µM) | 1 (≈ 1.5 µM) | 16 (≈ 24.1 µM) | > 128 | > 128 | – | – | – | – | – | –
5 | O=C(NNC(=O)[C@H](Cc1ccccc1)NC(=O)[C@@H]1CC[C@@H]2CN1C(=O)N2OS(=O)(=O)O)c1cn(C2CC2)c2cc(N3CCNCC3)c(F)cc2c1=O | > 128 | > 128 | > 128 | 16 (≈ 21.6 µM) | 8 (≈ 10.8 µM) | > 128 | > 128 | – | – | – | – | – | –
6 | CC(C)(C)OC(=O)N1CCN(c2cc3c(cc2F)c(=O)c(C(=O)NNC(=O)[C@@H]2CC[C@@H]4CN2C(=O)N4OS(=O)(=O)[O-])cn3C2CC2)CC1.CCCC[N+](CCCC)(CCCC)CCCC | > 128 | > 128 | > 128 | > 256 | 8 | > 128 | > 128 | – | – | – | – | – | –
7 | O=C(NNC(=O)[C@@H]1CCCN1C(=O)[C@@H]1CC[C@@H]2CN1C(=O)N2OS(=O)(=O)O)c1cn(C2CC2)c2cc(N3CCNCC3)c(F)cc2c1=O | > 128 | > 128 | > 128 | 8 (≈ 11.6 µM) | 128 (≈ 185 µM) | > 128 | > 128 | – | – | – | – | – | –
8 | O=C(CCCNC(=O)[C@@H]1CC[C@@H]2CN1C(=O)N2OS(=O)(=O)O)NNC(=O)c1cn(C2CC2)c2cc(N3CCNCC3)c(F)cc2c1=O | > 32 | > 32 | > 64 | 8 (≈ 11.8 µM) | > 64 | > 64 | > 64 | – | – | – | – | – | –
9 | O=C(NNC(=O)[C@@H]1CC[C@@H]2CN1C(=O)N2OS(=O)(=O)O)c1cn(C2CC2)c2cc(N3CCNCC3)c(F)cc2c1=O | > 128 | > 128 | 128 (≈ 216 µM) | 16 (≈ 27 µM) | 8 (≈ 13.5 µM) | > 128 | > 128 | Active | Active | Active | Active | 1.69 | 4.27
10 | O=C(CNC(=O)[C@@H]1CC[C@@H]2CN1C(=O)N2OS(=O)(=O)O)NNC(=O)c1cn(C2CC2)c2cc(N3CCNCC3)c(F)cc2c1=O | > 128 | > 128 | > 128 | 8 (≈ 12.3 µM) | > 256 | > 128 | > 128 | Active | Active | Active | Active | 226 | 5.74
11 | NC(=O)[C@@H]1CC[C@@H]2CN1C(=O)N2OS(=O)(=O)O [AVIBACTAM] | 32 (≈ 121 µM) | 8 (≈ 30.2 µM) | > 128 | 8 (≈ 30.2 µM) | 256 (≈ 965 µM) | 8 (≈ 30.2 µM) | > 128 | Active | Active | Active | Active | 141 | 3.87
12 | CC[C@H](C)C(NC(=O)[C@@H]1CC[C@@H]2CN1C(=O)N2OS(=O)(=O)O)C(=O)NNC(=O)c1cn(C2CC2)c2cc(N3CCNCC3)c(F)cc2c1=O (stereo partly drawn) | > 128 | > 128 | > 128 | 32 (≈ 45.3 µM) | > 256 | > 128 | > 128 | – | – | – | – | – | –
13 | O=C(O)c1cn(C2CC2)c2cc(N3CCNCC3)c(F)cc2c1=O [CIPROFLOXACIN] | > 128 | 128 (≈ 386 µM) | 0.5 (≈ 1.51 µM) | – | – | > 128 | > 128 | – | – | – | – | – | –
